For series [1], the target named is T1, PSAT1 (Homo sapiens, UniProt Q9Y617).
T1 sequence (Q9Y617 1-370): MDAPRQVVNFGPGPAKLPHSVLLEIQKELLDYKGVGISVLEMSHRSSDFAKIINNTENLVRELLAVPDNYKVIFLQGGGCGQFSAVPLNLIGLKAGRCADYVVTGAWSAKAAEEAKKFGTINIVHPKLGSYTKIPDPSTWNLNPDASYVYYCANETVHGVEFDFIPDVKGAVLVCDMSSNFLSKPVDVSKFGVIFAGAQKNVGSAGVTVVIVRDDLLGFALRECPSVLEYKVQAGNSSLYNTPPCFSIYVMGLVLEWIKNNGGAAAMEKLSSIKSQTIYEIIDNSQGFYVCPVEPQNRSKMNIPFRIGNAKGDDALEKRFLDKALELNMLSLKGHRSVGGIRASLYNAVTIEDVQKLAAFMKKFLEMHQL
Kind of series: end-point GDH assay of alpha-ketoglutarate; LC-MS of product. The series is classed as biochemical. To be noted: L-Glu 1 mM as donor; pH 7.2, 37 C, 16 h.

Series [2] has as its target T2, TAT (tyrosine aminotransferase) (Homo sapiens, UniProt P17735).
T2 sequence (P17735 41-454): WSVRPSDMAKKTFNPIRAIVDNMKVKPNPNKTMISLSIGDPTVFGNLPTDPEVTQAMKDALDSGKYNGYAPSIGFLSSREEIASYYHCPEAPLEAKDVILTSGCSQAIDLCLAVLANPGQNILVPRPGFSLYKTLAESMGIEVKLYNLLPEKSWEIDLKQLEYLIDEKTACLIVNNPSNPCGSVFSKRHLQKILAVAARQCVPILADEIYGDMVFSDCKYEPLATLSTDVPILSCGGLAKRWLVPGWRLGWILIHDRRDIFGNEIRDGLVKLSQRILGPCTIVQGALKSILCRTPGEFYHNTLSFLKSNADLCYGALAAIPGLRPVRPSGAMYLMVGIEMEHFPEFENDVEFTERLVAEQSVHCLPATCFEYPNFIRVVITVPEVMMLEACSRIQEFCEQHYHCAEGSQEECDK
Put plainly: continuous coupled assay with MDH1 and NADH. The series is classed as biochemical. The following applies: alpha-ketoglutarate 0.5 mM as acceptor; pH 8.0; read-out: apparent KM. From the text: continuous coupled assay with MDH1 and NADH on TAT (tyrosine aminotransferase) | the opposite is true for TAT (Fig. 3A)

The target of series [3] is T3, LDHA (lactate dehydrogenase A) (Homo sapiens, UniProt P00338).
T3 construct: gift clone
Put plainly: spectrophotometric reduction with NADH. The series is classed as biochemical.

Series [4] deals with T4, MDH1 (cytosolic malate dehydrogenase) (Homo sapiens, UniProt P40925).
T4 construct: from human kidney cDNA, pET28a, His6-tagged, expressed in E. coli BL21(DE)
T4 sequence (P40925 2-334): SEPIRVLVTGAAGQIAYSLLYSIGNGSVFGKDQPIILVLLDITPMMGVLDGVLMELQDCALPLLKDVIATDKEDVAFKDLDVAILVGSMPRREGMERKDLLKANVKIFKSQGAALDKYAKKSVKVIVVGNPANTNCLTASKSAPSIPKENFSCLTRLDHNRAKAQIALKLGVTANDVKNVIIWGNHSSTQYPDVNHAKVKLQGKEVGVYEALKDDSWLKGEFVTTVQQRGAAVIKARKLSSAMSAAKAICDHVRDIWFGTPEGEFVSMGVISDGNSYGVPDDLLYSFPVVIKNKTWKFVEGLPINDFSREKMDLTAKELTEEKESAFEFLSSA
Kind of series: spectrophotometric reduction with NADH. The series is classed as biochemical.

Substrate in series [5]: N[C@@H](Cc1c[nH]c2ccccc12)C(=O)O
Kind of series: continuous coupled assay with MDH1 and NADH. The series is classed as biochemical, Homo sapiens. To be noted: pyruvate 3 mM as acceptor, pH 8.0.

This is an account of results in article PMC9283133, “Human cytosolic transaminases: side activities and patterns of discrimination towards physiologically available alternative substrates” (Cellular and Molecular Life Sciences: CMLS, 2022).

For the molecule `O=C(CO)COP(=O)(O)O` [DHAP], the “end-point GDH assay of alpha-ketoglutarate; LC-MS of product” value in series [1] was “DHAP, which reacted primarily with PSAT1”.
In the case of `N[C@@H](Cc1c[nH]c2ccccc12)C(=O)O` [L-Trp], the Michaelis-Menten constant (Km) in series [2] was above 10 mM.
Regarding `CC(O)C(=O)C(=O)O` (stereo not drawn) [3-hydroxy-2-ketobutyrate], the “spectrophotometric reduction with NADH” value in series [3] was 3-hydroxy-2-ketobutyrate, is a substrate for LDHA.
`O=C(O)C(=O)Cc1c[nH]c2ccccc12` [IndPy]: the “spectrophotometric reduction with NADH” value in series [4] was “recombinant MDH1 reduced with good efficiency IndPy”.

B1: GTK (glutamine transaminase K; KYAT1) (Homo sapiens) (protein)
chain: MAKQLQARRLDGIDYNPWVEFVKLASEHDVVNLGQGFPDFPPPDFAVEAFQHAVSGDFMLNQYTKTFGYPPLTKILASFFGELLGQEIDPLRNVLVTVGGYGALFTAFQALVDEGDEVIIIEPFFDCYEPMTMMAGGRPVFVSLKPGPIQNGELGSSSNWQLDPMELAGKFTSRTKALVLNTPNNPLGKVFSREELELVASLCQQHDVVCITDEVYQWMVYDGHQHISIASLPGMWERTLTIGSAGKTFSATGWKVGWVLGPDHIMKHLRTVHQNSVFHCPTQSQAAVAESFEREQLLFRQPSSYFVQFPQAMQRCRDHMIRSLQSVGLKPIIPQGSYFLITDISDFKRKMPDLPGAVDEPYDRRFVKWMIKNKGLVAIPVSIFYSVPHQKHFDHYIRFCFVKDEATLQAMDEKLRKWKVEL
notes: cytosolic enzyme
For B1, in series [5], the Michaelis constant (Km) amounted to 0.14 ± 0.03 mM and the catalytic efficiency (kcat/Km) turned out to be 490 ± 30 M⁻¹ s⁻¹.
